Measurements: patent publication EP3184514A1, “AUTOPHAGY INHIBITORS” (Deutsches Krebsforschungszentrum, priority 2015, dated 2017)

Assays:
LC3B = experiment: cellular autophagy screening: LC3B spots by immunocytochemistry and automated confocal imaging; type: cell-based; conditions: Table 1-a; relative to negative DMSO control; 100 µM, 1 hour; n.e. means no effect
Method: For screening purposes, cells were seeded in 384 well plates and left over night for attachment.
Afterwards, medium was removed and 4 % (w/v) paraformaldehyde (PFA) in PBS buffer was added to the cells for 20 minutes, incubated at room temperature. Cells were permeabilized with 0.1 % (v/v) Triton X-100 for 10 min at room temperature and washed with PBS. Cells were blocked with 3 % (w/v) bovine serum albumin (BSA) in PBS for 45 minutes at 37 °C and then incubated with anti-LC3B (PM036, MBL) or anti-p62 (PM045 or M162-3, MBL) primary antibody diluted in 0.3 % BSA (1:2000 or 1:500) for 1.5-2 hours at 37 °C. Cells were washed three times with PBS.
384 well plates were then analyzed with an automated confocal microscope Opera (PerkinElmer) enabling high throughput high content screening image analysis. […] A water immersion 60x objective was used for optical slicing and stacking (5x0.5 µm stacks). […] Signal was detected with a fast gated CCD camera. Acapella software (PerkinElmer) is an algorithm based high content imaging and analysis software used in multi-parametric multiplex assays. Acapella was used to follow cell viability (i.e. number of cells) and the number of LC3B and p62 spots per cell.
The LC3B protein is a ubiquitin-like protein that can be conjugated to phosphatidylethanolamine (PE) in the membrane of the incipient autophagosome. The nonlipidated and lipidated forms are usually referred to as LC3B-I and LC3B-II, respectively. […] Autophagic flux is often inferred on the basis of LC3B-II turnover, measured by western blot (WB) or immunofluorescence (IF) in the presence and absence of lysosomal degradation. […] Lysosomal degradation can be prevented e.g. through the use of compounds that neutralize the lysosomal pH such as Bafilomycin A1 (BafA1) or chloroquine (CQ). […] An additive or supra-additive effect in LC3B-II levels (WB) and LC3B-positive punctae numbers (IF) may indicate that the treatment enhances autophagic flux. […] This assay can be complemented by simultaneous monitoring of autophagosomal substrates or autophagosomal substrate receptors (e.g. SQSTM1/p62) by WB and/or IF. For example, an increase in LC3B-II levels in combination with the accumulation of SQSTM1/p62 is indicative of a blockage of the autophagy pathway at terminal stages.

U2OS cells = experiment: autophagic flux by confocal microscopy and western blotting; type: cell-based, Human
Method: […]. After harvesting, cells were lysed with radioimmunoprecipitation assay (RIPA) buffer (50 mM Tris-HCl, pH 7.5, 150 mM NaCl, 0.5 % deoxycholate, 1 % Triton X-100, 0.1 % SDS and 1x protease inhibitors) and left on ice for 30 minutes. Cell lysates were clarified by centrifugation at 10000xg for 20 min at 4 °C. Protein concentrations of the supernatants were determined by BCA assay and the absorbance was measured at 562 nm. SDS-PAGE and WB was performed.
For screening purposes, cells were seeded in 384 well plates and left over night for attachment. […]. For controls, cells were treated with 250 nM torin and/or 100 nM BafA1 for 2 hours.
Afterwards, medium was removed and 4 % (w/v) paraformaldehyde (PFA) in PBS buffer was added to the cells for 20 minutes, incubated at room temperature. Cells were permeabilized with 0.1 % (v/v) Triton X-100 for 10 min at room temperature and washed with PBS. Cells were blocked with 3 % (w/v) bovine serum albumin (BSA) in PBS for 45 minutes at 37 °C and then incubated with anti-LC3B (PM036, MBL) or anti-p62 (PM045 or M162-3, MBL) primary antibody diluted in 0.3 % BSA (1:2000 or 1:500) for 1.5-2 hours at 37 °C. Cells were washed three times with PBS. Secondary Alexa Fluor 488 - labeled antibodies (A-11008, Invitrogen) were diluted in 0.3 % BSA (1:2500) and incubated on cells for 15 minutes at 37 °C. Cells were washed once with PBS, incubated with DRAQ5 (#4084, Cell Signaling) diluted in PBS (1:5000) for 10 minutes and washed three times with PBS.
384 well plates were then analyzed with an automated confocal microscope Opera (PerkinElmer) enabling high throughput high content screening image analysis. […] Signal was detected with a fast gated CCD camera. […]
The LC3B protein is a ubiquitin-like protein that can be conjugated to phosphatidylethanolamine (PE) in the membrane of the incipient autophagosome. […] Autophagic flux is often inferred on the basis of LC3B-II turnover, measured by western blot (WB) or immunofluorescence (IF) in the presence and absence of lysosomal degradation. […]

Brc1ccc(CSC2=NCN(Cc3cccnc3)CN2)cc1 [Compound I-1, 6-((4-bromobenzyl)thio)-3-(pyridin-3-ylmethyl)-1,2,3,4-tetrahydro-1,3,5-triazine]
LC3B inhibition cell based Fold increase of LC3B spots [DMSO control 1.0] (LC3B): 4.9 | numbers of LC3B spots and levels of LC3B-II (U2OS cells; 100 µM compound together with BafA1 100 nM, compared with single treatment): did not increased further | amount of LC3B-II protein and LC3B spots (U2OS cells; 100 µM, 1 hr): increased
